Source: patent US20250268844A1, “ANTICANCER AGENTS BASED ON CYCLOPENTENONES” (UNIVERSITY OF CRETE, priority 2022, published 2025)

Tests used:
[1] = tested on: A2780 ovarian carcinoma cells; assay: MTT conversion assay, A2780; type: cell-based, human; conditions: 48 hrs treatment
Protocol: (§1) In particular, Enone-1 and Enone-2 were tested for cytotoxic activity in 17 cell lines representing a broad spectrum of human tumors. They include human colorectal carcinoma (Caco2, RKO, HCT15, HT29), liver (HepG2), lung (A549), ovarian carcinoma (A2780, 2780CP, AGE60, SKOV3), anaplastic large cell lymphoma (Mac1 and Mac2a), breast carcinoma (MDA-MB-231), cervical (HeLa), bladder cancer (VM-CUB-1), melanoma (BRO), and multiple myeloma (MR20).
(§2) Each assay was performed in triplicate and repeated in 2-3 independent experiments. Specifically, to measure cell survival, 20 μl of 10 mg/ml MTT (3-([…])-2,5-diphenyl tetrazolium bromide; Sigma) was added to each well and the plates were incubated at 37° C. in 5% CO2 for 3 hours. The supernatant was removed and the formed crystals were dissolved in 200 μl dimethyl sulphoxide. The plates were then analysed at 450 nm on a plate reader. Growth inhibition (reduction in survival) was calculated by expressing the differences in optical densities between treatment wells and control wells as a percentage of the control.

[2] = tested on: 2780CP, a cis-platin-resistant derivative of A2780; assay: MTT conversion assay, 2780CP; type: cell-based, human; conditions: for IC50: 2780CP, ovarian, cis-platin-resistant, 48 hrs treatment, MTT; for sensitivity of 2780CP cells compared with cis-platin-sensitive A2780 cells: MTT conversion assays
Protocol: as §1, §2
Resistance to platinum-based chemotherapy is a major problem in oncology that impacts therapeutic options and limits patient survival. This is relevant to several types of malignancy, including ovarian cancer where platinum resistance frequently occurs. As Enone-1 and 2 show efficacy in reducing survival of A2780 ovarian carcinoma cells, the drugs were also tested in 2780CP, a cis-platin-resistant derivative of A2780 [13].

[3] = tested on: SKOV3 ovarian carcinoma cells; assay: MTT conversion assay, SKOV3; type: cell-based, human
Protocol: as §1, §2

[4] = tested on: AGE60 ovarian carcinoma cells; assay: MTT conversion assay, AGE60; type: cell-based, human; conditions: 48 hrs treatment
Protocol: as §1, §2

[5] = tested on: RKO colorectal carcinoma cells; assay: MTT conversion assay, RKO; type: cell-based, human; conditions: colon, 48 hrs treatment
Protocol: as §1, §2

[6] = tested on: HT29 colorectal carcinoma cells; assay: MTT conversion assay, HT29; type: cell-based, human; conditions: 48 hrs treatment
Protocol: as §1, §2

[7] = tested on: Caco-2 colorectal carcinoma cells; assay: MTT conversion assay, Caco-2; type: cell-based; conditions: Homo sapiens, Caco-2, colon, 48 hrs treatment
Protocol: as §1, §2

[8] = tested on: HCT15 colorectal carcinoma cells; assay: MTT conversion assay, HCT15; type: cell-based, human; conditions: 48 hrs treatment
Protocol: as §1, §2

HepG2 liver cells = assay: MTT conversion assay, HepG2; type: cell-based, human; conditions: 48 hrs treatment
Protocol: as §1, §2

A549 lung cells = assay: MTT conversion assay, A549; type: cell-based, human; conditions: 48 hrs treatment
Protocol: as §1, §2

[9] = tested on: MR20 multiple myeloma cells; assay: MTT conversion assay, MR20; type: cell-based, human; conditions: 48 hrs treatment
Protocol: as §1, §2

[10] = tested on: VM-CUB-1 bladder cancer cells; assay: MTT conversion assay, VM-CUB-1; type: cell-based, human; conditions: 48 hrs treatment
Protocol: as §1, §2

BRO melanoma cells = assay: MTT conversion assay, BRO; type: cell-based, human; conditions: 48 hrs treatment
Protocol: as §1, §2

[11] = tested on: A2780 ovarian cancer cells; assay: PrestoBlue cell viability assay; type: cell-based, human; conditions: 72 hrs treatment, n=3 experiments
Protocol: The effects of Enone-1 and Enone-2 on cancer cells were confirmed using a second methodology, namely the PrestoBlue assay (PrestoBlue™ Cell Viability Reagent, Thermo Fisher, Catalog number: A13261), a cell permeable resazurin-based solution that functions as a cell viability indicator. A2780 ovarian cancer cells were plated as described above for the MTT assays and Enone drugs were added at increasing concentrations as indicated in FIG. 2. Cell viability was determined 72 hrs later following the addition of PrestoBlue, according to the manufacturer's instructions (Thermo Fisher).

[12] = tested on: MB49 mouse bladder carcinoma cells; assay: MTT assay, MB49; type: cell-based; conditions: 48 hrs
Protocol: FIG. 5: Effects of enone compounds on mouse tumor growth.
as §2
First, the impact of Enone-1 and Enone-2 on the survival of MB49 cells was verified by MTT assays performed as described in FIG. 1.

p53 [13] = assay: p53 immunoblot in A2780 cells; type: cell-based, human; conditions: 2.5 μM or increasing concentrations, 6 hrs or time course
Protocol: (§3) FIG. 8: Enones induce the p53 pathway. […] Cell lysates were analyzed for p53 and GAPDH (loading control). (B) A2780 cells were cultured in the presence or absence of 2.5 μM for the indicated time points before being analyzed for p53 and GAPDH levels. (C) Treatment of A2780 cells with 2.5 μM Enone-2 results in the up-regulation of p53-regulated genes (*p<0.05; **p<0.01; ***p<0.001, n=4). (D) Induction of p53 accumulation in AGE60 ovarian carcinoma cells following 6 or 14 hr exposure to 2.5 μM Enone-2. (E) Enone-1 induces the p53 pathway in A2780 cells which were cultured in the presence of 2.5 μM of the drug and analyzed as in (B). (F) Treatment of A2780 cells with 2.5 μM Enone-2 results in the up-regulation of p53-regulated genes (*p<0.05; **p<0.01; ***p<0.001, n=3).
(§4) The effects of Enone-2 on p53 and p53-dependent transcription of cell cycle and cell death-associated genes was confirmed by immunoblotting for p53 and by reverse transcription qPCR (RT-qPCR) for mdm2, p21, bax and bbc3/puma, established p53 target genes.

[14] = tested on: mdm2, p21, bax and bbc3/puma; assay: RT-qPCR of p53 target genes in A2780 cells; type: cell-based, human; conditions: 2.5 μM
Protocol: as §3, §4

[15] = tested on: MDA-MB-231 breast carcinoma cells; assay: MTT conversion assay, MDA-MB-231; type: cell-based, human; conditions: 48 hrs treatment
Protocol: as §1, §2

[16] = tested on: HeLa cervical carcinoma cells; assay: MTT conversion assay, HeLa; type: cell-based, human; conditions: 48 hrs treatment
Protocol: as §1, §2

γH2Ax = γH2Ax immunoblot (DNA damage response marker) in A2780 cells; type: cell-based, human; conditions: 6 hrs, increasing concentrations, relative to untreated controls
Protocol: (§5) FIG. 9. […] A2780 cells were cultured for 6 hrs in the presence of drug concentrations as indicated. (B) Effects of siRNA targeting RPL11 (siRPL11), Chek2 (siChek2) or the unrelated luciferase (Luci) genes on RPL11 and Chek2 mRNA levels quantified by RT-PCR. (C) Effects of siRpl11 on Enone-2 and oxaliplatin (OXA)-induced p53 activation. Expression levels relative to GAPDH are indicated; untreated controls (CNT) were given the arbitrary value of 1. […] Expression levels relative to GAPDH are indicated; untreated controls (CNT) were given the arbitrary value of 1.

p53 [17] = assay: siRNA knockdown of Chek2 or Rpl11 and drug-induced p53 activation in A2780 cells; type: cell-based, human; conditions: A2780 transiently transfected with siRNAs
Protocol: as §5
To further validate this observation, A2780 cells were transiently transfected with siRNAs targeting Chek2 which is required for DDR-induced p53, or Rpl11 which is required for RS-mediated p53 activation. The efficacy and specificity of the knockdowns were confirmed by RT-qPCR (FIG. 9B).

`C[C@@]1(O)C=CC(=O)C1c1ccc2ccccc2c1` (stereo in doubt) [Enone-1, 4-hydroxy-4-methyl-5-(naphthalen-2-yl)cyclopent-2-en-1-one] was tested, and the IC50 ([1]; Homo sapiens) was 0.6 µM, the IC50 ([2]; Homo sapiens, A2780) was 0.75 µM and the “sensitivity of 2780CP cells compared with cis-platin-sensitive A2780 cells” value [2] was “nearly as sensitive”. The “sensitivity of 2780CP cells compared with cis-platin-sensitive A2780 cells” value ([2]; listed as Enone1) was “remain sensitive”, the IC50 ([3]; Homo sapiens, SK-OV-3, 48 hrs treatment) was 0.8 µM and the IC50 ([4]; Homo sapiens, Ovarian carcinoma cell) was 1 µM. For the same molecule, the IC50 ([5]; Homo sapiens) was 1.3 µM, the IC50 ([6]; Homo sapiens, HT-29, HT29, colon) was 1.2 µM and the IC50 [7] was 1.8 µM. For the same molecule, the IC50 ([8]; Homo sapiens, HCT-15, HCT15, colon) was 1.2 µM, the IC50 (HepG2 liver cells; Homo sapiens) was 3.8 µM and the IC50 (A549 lung cells; Homo sapiens) was 1.7 µM. For the same molecule, the IC50 ([9]; Homo sapiens, Multiple myeloma cell) was 0.05 µM, the IC50 ([10]; Homo sapiens) was 1.2 µM and the IC50 (BRO melanoma cells; Homo sapiens) was 3.9 µM. For the same molecule, the IC50 ([11]; Homo sapiens) was 0.2 µM, the IC50 [12] was 1.4 µM and the “p53 accumulation (immunoblot)” value (p53 [13]) was “induce p53”. The “mdm2, p21, bax and bbc3/puma mRNA (p53-dependent gene expression)” value [14] was “induce p53 and p53-dependent gene expression”.

`N.N.[Cl][Pt][Cl]` [cis-platin, reference compound] was tested, and the IC50 [1] was 1.4 µM, the IC50 [2] was 10 µM and the “sensitivity of 2780CP cells compared with cis-platin-sensitive A2780 cells” value [2] was “less sensitive”. For the same molecule, the IC50 ([3]; 48 hrs treatment) was 4 µM, the IC50 [4] was 5 µM and the IC50 [5] was 19 µM. For the same molecule, the IC50 ([6]; HT29, colon) was 13.5 µM, the IC50 ([8]; HCT15, colon) was 14 µM and the IC50 (HepG2 liver cells) was 9 µM. It also gave an IC50 (A549 lung cells) of 7.5 µM, an IC50 [15] of 32 µM and an IC50 [9] of about 5.8 µM. For the same molecule, the IC50 ([9]; listed as Cis-platin) was 5.8 µM, the IC50 [16] was about 31 µM and the IC50 ([16]; listed as Cis-platin) was 31 µM. The IC50 [10] was 7.9 µM, the IC50 (BRO melanoma cells) was 15.2 µM and the IC50 [11] was 1.4 µM. The IC50 [12] was 3.8 µM, the “p53 accumulation (immunoblot)” value (p53 [13]) was “less effective” and the “γH2Ax induction (marker of DDR)” value (γH2Ax) was “induced γH2Ax”. For the same molecule, the “effect of Chek2 or Rpl11 siRNA knockdown on drug-induced p53 activation” value (p53 [17]) was “Chek2 knockdown ameliorated cis-platin-induced p53 activation”.

With `O=C1[O][Pt]2([NH][C@@H]3CCCC[C@H]3[NH]2)[O]C1=O` [oxaliplatin, reference compound] the IC50 [11] was 0.27 µM and the “effect of Chek2 or Rpl11 siRNA knockdown on drug-induced p53 activation” value (p53 [17]) was “depletion of Rpl11 reduced oxaliplatin-induced p53 accumulation”.
